Results reported in US11974989B2, “Therapeutic uses of glucokinase activators in combination with insulin or insulin analogs” (vTv Therapeutics LLC, priority 2018, dated 2024).
Values joined by “and” are separate entries in the source; they are usually repeats but may differ in a detail not shown here. Identical values can stand only once.

Experiments:
Assay type in all cases: in vivo, human
[1] = tested on: adult patients with type 1 diabetes (T1DM); test: Open-label weekly dose escalation study: CGM blood glucose time in range; details: for median value of the percentage of time blood glucose levels were in the range of 70-180 mg/dL: median over subjects (FIG. 1), baseline 52.0%; for median value of the percentage of time blood glucose levels were greater than 180 mg/dL (hyperglycemia): median over subjects (FIG. 4), baseline 37%; for Percentage of time (using CGM) blood glucose level is in range of 70-180 mg/dL / Percentage of time (using CGM) blood glucose level is above 180 mg/dL / Percentage of time (using CGM) blood glucose level is below 54 mg/dL / Percentage of time (using CGM) blood glucose level is between 54 and 70 mg/dL: median of days 3-6, one per subject 1-5
Method: (§1) An open-label, weekly dose escalation study with up to 3 dose escalations was conducted. Five adult patients with type 1 diabetes (T1DM) who were using a continuous glucose monitoring (CGM) device and insulin delivered by continuous subcutaneous insulin infusion (CSII) were dosed with a once daily with a dose of 400, 800 or 1200 mg of {2-[3-cyclohexyl-3-(trans-4-propoxy-cyclohexyl)-ureido]-thiazol-5-ylsulfanyl}-acetic acid (UT-1) for seven days at each dose level.
(§2) The initial 7 days (days −7 to −1) of the study were used to obtain baseline laboratory samples and to record baseline insulin doses and blood glucose levels during a patient's usual insulin, dietary, and activity regimen. The once daily treatment dose of UT-1 was administered morning meal. Safety labs were collected on days −7, 1, 8, 15, 21 and 28. Insulin pump data and CGM data for each dosing period was collected on days 1, 8, 15, 21, and 28. Insulin was adjusted by a patient as required to maintain glycemic control. Data from day 3 to day 6 of each dosing period or baseline period was used in the analysis of the data.

[2] = tested on: adult patients with type 1 diabetes (T1DM); test: Open-label weekly dose escalation study: insulin pump data (bolus and basal insulin dose); details: for mean value of bolus insulin dose per day: over subjects (FIG. 5), baseline 27.1 mean U/day; for Mean units of basal insulin units administered per day / Mean units of bolus insulin units administered per day: mean of days 3-6, one per subject 1-5
Method: as §1, §2

[3] = tested on: adult patients with type 1 diabetes (T1DM); test: Open-label weekly dose escalation study: safety labs; details: 400, 800, 1200 mg once daily, 7 days each
Method: as §1, §2

[4] = Open-label weekly dose escalation study: pharmacokinetic data; details: 1200 mg group compared to the 800 mg group
Method: as §1, §2

adult patients with T1DM [5] = test: Multi-center double-blind placebo-controlled 12-week study, adjunct to insulin: HbA1c, responder analysis, ketones, insulin usage
Method: (§3) A multi-center double-blind placebo-controlled study with a 2-week single-blind placebo run-in period to evaluate UT-1 as a potential adjunctive treatment to insulin therapy for T1DM was conducted. The study examined the response in 20 adult patients with T1DM who were using a continuous glucose monitoring (CGM) device and insulin delivered by continuous subcutaneous insulin infusion (CSII) dosed once daily with either placebo or 800 mg UT-1 for up to 12 weeks. The once daily treatment was administered with the morning meal. Safety and assessments labs were collected prior to the placebo-run in period, at Day 1 prior to dosing with blinded study medication, at weeks 2, 4, 6, 8, 12 and at approximately week 13. Insulin pump data and CGM data was collected from the single-blind placebo run-in period to the end of dosing. A quality of life and treatment satisfaction questionnaires were also used. Insulin was adjusted by patients as required to maintain glycemic control.
Patients in this study received insulin adjustments to optimize glucose levels. […] Of all study patients, there was a greater proportion of responders in the group treated with UT-1 (75%) than in the placebo group (9%) (p=0.006).

adult patients with T1DM [6] = test: Multi-center double-blind placebo-controlled 12-week study: safety and tolerability; details: 800 mg once daily up to 12 weeks
Method: as §3

## CCCO[C@H]1CC[C@H](N(C(=O)Nc2ncc(SCC(=O)O)s2)C2CCCCC2)CC1 [UT-1, {2-[3-cyclohexyl-3-(trans-4-propoxy-cyclohexyl)-ureido]-thiazol-5-ylsulfanyl}-acetic acid]
[1]; 400 mg dose
  median value of the percentage of time blood glucose levels were in the range of 70-180 mg/dL: 67.9%
  median value of the percentage of time blood glucose levels were greater than 180 mg/dL (hyperglycemia): 30.92%
[1]; 800 mg dose
  median value of the percentage of time blood glucose levels were in the range of 70-180 mg/dL: 75.7%
  median value of the percentage of time blood glucose levels were greater than 180 mg/dL (hyperglycemia): 20.46%
[1]; UT-1 400 mg once daily for 7 days with CSII insulin
  Percentage of time (using CGM) blood glucose level is in range of 70-180 mg/dL: 69.3% and 56.3% and 69.6% and 67.9% and 56.8%
[1]; UT-1 400 mg once daily
  Percentage of time (using CGM) blood glucose level is above 180 mg/dL: 20.91% and 42.54% and 22.49% and 30.92% and 36.99%
  Percentage of time (using CGM) blood glucose level is below 54 mg/dL: 0% (3×) and 2.42% and 1.88%
  Percentage of time (using CGM) blood glucose level is between 54 and 70 mg/dL: 4.2% and 0.86% and 5.54% and 0.54% and 4.97%
[1]; UT-1 800 mg once daily for 7 days with CSII insulin
  Percentage of time (using CGM) blood glucose level is in range of 70-180 mg/dL: 44.3% and 65.4% and 85.9% and 82.7% and 75.7%
[1]; UT-1 800 mg once daily
  Percentage of time (using CGM) blood glucose level is above 180 mg/dL: 50.66% and 34.56% and 14.07% and 16.82% and 20.46%
  Percentage of time (using CGM) blood glucose level is below 54 mg/dL: 1.38% and 0% (4×)
  Percentage of time (using CGM) blood glucose level is between 54 and 70 mg/dL: 3.27% and 0% (2×) and 0.17% and 0.69%
[1]; UT-1 1200 mg once daily for 7 days with CSII insulin
  Percentage of time (using CGM) blood glucose level is in range of 70-180 mg/dL: 52.9% and 48.8% and 80.9% and 69.6% and 59.3%
[1]; UT-1 1200 mg once daily
  Percentage of time (using CGM) blood glucose level is above 180 mg/dL: 42.24% and 50.68% and 18.79% and 24.62% and 30.09%
  Percentage of time (using CGM) blood glucose level is below 54 mg/dL: 0% (4×) and 3.84%
  Percentage of time (using CGM) blood glucose level is between 54 and 70 mg/dL: 0.17% (2×) and 0.86% and 1.28% and 5.84%
[1]; dose escalation 400, 800, 1200 mg once daily
  glycemic control and insulin dose (trend): trends toward improved glycemic control while reducing insulin dose
[2]; 400 mg dose
  mean value of bolus insulin dose per day: 25 mean U/day
[2]; 800 mg dose
  mean value of bolus insulin dose per day: 20 mean U/day
[2]; UT-1 400 mg once daily
  Mean units of basal insulin units administered per day: 23.9 mean U/day and 15.5 mean U/day and 29.3 mean U/day and 22.6 mean U/day
  Mean units of bolus insulin units administered per day: 22.6 mean U/day and 29.9 mean U/day and 25.5 mean U/day and 23.3 mean U/day
[2]; UT-1 800 mg once daily
  Mean units of basal insulin units administered per day: 22.6 mean U/day and 15.3 mean U/day and 19.6 mean U/day and 29.8 mean U/day and 22.2 mean U/day
  Mean units of bolus insulin units administered per day: 17.6 mean U/day and 23.4 mean U/day and 22.5 mean U/day and 22 mean U/day and 15.8 mean U/day
[2]; UT-1 1200 mg once daily
  Mean units of basal insulin units administered per day: 22.9 mean U/day and 13.9 mean U/day and 21.8 mean U/day and 30.5 mean U/day and 19.1 mean U/day
  Mean units of bolus insulin units administered per day: 16.2 mean U/day and 23.8 mean U/day and 20.9 mean U/day and 28 mean U/day and 25.2 mean U/day
[2]; from baseline to 400 mg dose, and from 400 mg dose to 800 mg dose
  ratio of mean carbohydrate intake per day to mean bolus insulin dose per day: increase
[3]
  effect on liver function or plasma lipids: No detrimental effect
[4]
  concentrations of UT-1 (pharmacokinetic data): lower in 3 out of 5 subjects
Adult patients with T1DM [5]; 800 mg once daily, 12 weeks, p=0.03
  mean difference in HbA1c in the UT-1 group relative to the placebo group: 0.7%
Adult patients with T1DM [5]; 800 mg once daily, at 12 weeks, n=8
  ending HbA1c: 6.7-6.8%
Adult patients with T1DM [5]; 800 mg once daily, at 12 weeks, n=8, baseline mean HbA1c 7.3%, statistically significant
  mean reduction in HbA1c: 0.6%
Adult patients with T1DM [5]; 800 mg once daily, up to 12 weeks
  insulin usage (trend): trends toward decreased insulin usage
Adult patients with T1DM [5]; 800 mg once daily, placebo 63%
  patients with abnormal levels of metabolic ketones observed in plasma or urine: 13%
Adult patients with T1DM [5]; responder: decrease in HbA1c at Week 12, no abnormal lactate or metabolic ketones, no increased time in Level 2 hypoglycemia, placebo 9%, p=0.006
  proportion of treatment responders: 75%
Adult patients with T1DM [6]; similar incidences of treatment-emergent adverse events overall and by system organ class
  tolerability: well tolerated
Adult patients with T1DM [6]; whole study
  diabetic ketoacidosis or severe hypoglycemia reports: no report of diabetic ketoacidosis or severe hypoglycemia
  serious adverse events: no serious adverse event
